Laboratory results: patent US20240408085A1, “COMPOUND FOR DEGRADATION OF BCL-2 FAMILY PROTEINS AND MEDICAL APPLICATION THEREOF” (XIZANG HAISCO PHARMACEUTICAL CO., LTD., priority 2021, published 2024)

Experiments:
BCL-xL proteins = target: T1, BCL-xL proteins (Homo sapiens, UniProt Q07817); test: BCL-xL degradation activity in MOLT-4 cells (western blot, 16 h); format: cell-based
T1 construct: degradation effect on the BCL-xL proteins in MOLT-4 cells; host or cells: MOLT-4
Method: MOLT-4 cells are acute lymphoblastic leukemia cell lines in humans. The cells were purchased from ATCC. Culture conditions: RPMI-1640+10% FBS+1% penicillin-streptomycin solution. The cells were cultured in a 37° C., 5% CO2 incubator. The cells were plated in a 12-well plate, with 2×10^5 cells/well. After plating, compounds at different concentrations were added and cultured in a 37° C., 5% CO2 incubator for 16 h. After the completion of culture, the cells were harvested and RIPA lysis buffer (beyotime, Cat. P0013B) was added. The cells were lysed on ice for 15 minutes and centrifuged at 12000 rpm at 4° C. for 10 minutes. The supernatant protein samples were collected and the protein was quantified by using the BCA kit (Beyotime, Cat. P0009). Then the protein was diluted to 0.8 mg/mL. The expressions of BCL-xL (CST, Cat. 2764S), BCL-2 (CST, Cat. 15071S) and the internal reference β-actin (CST, Cat. 3700S) were detected using a fully automated western blot quantitative analyzer (Proteinsimple). The expression level of BCL-xL or BCL-2 relative to the internal reference was calculated by using Compass software, and the DC50 value was calculated by using GraphPad Prism 8.0 software according to formula (1), wherein the Proteinadministration denoted the relative expression level of BCL-xL or BCL-2 in administration groups at different doses, and the Proteinvehicle denoted the relative expression level of BCL-xL or BCL-2 in the vehicle control group.
Protein %=Proteinadministration/Proteinvehicle×100% formula (1)

MOLT-4 xenograft tumors = test: Growth inhibition experiment in MOLT-4 xenograft tumor models in mice; format: in vivo; conditions: two-way ANOVA and then Dunnett's test, FIG. 1
Method: MOLT-4 cells are acute lymphoblastic leukemia cell lines in humans. The cells were purchased from ATCC and cultured in RPMI-1640+10% FBS+1% o penicillin-streptomycin solution in a 37° C., 5% CO2 incubator. When the cells were in the exponential growth phase, the cells were harvested and counted. An equal volume of matrigel was added. Female SCID Beige mice (4-6 weeks old, 14-16 g, Beijing Vital River Laboratory Animal Technology Co., Ltd.) were inoculated subcutaneously in the right flank with the cells (200 μL, containing 1×10^7 MOLT-4 cells and 50% matrigel). When the tumor volume reached 150-200 mm^3, the mice were randomly grouped for administration according to the tumor volume and body weight of the mice. Three administration dosages were provided: 5 mpk, 15 mpk and 50 mpk. The compounds were injected intraperitoneally (ip) weekly (qw). The mice in all the experimental groups (10 mice in each group) were continuously administered for 4 weeks.
After inoculation, the body weights of the mice were measured three times a week and the long (a) and short (b) diameters of the tumors were measured. The tumor volume was calculated according to the formula: V=ab^2/2. At day 28 after the administration, the experiment was terminated.

[1] = Pharmacokinetic test in monkeys (intravenous); format: in vivo; conditions: male, cynomolgus monkey, i.v. 2 mg/kg, plasma
Method: Experimental animals: male cynomolgus monkeys, 3-5 kg, 3-6 years old, 2 monkeys/compound. Purchased from Suzhou Xishan Biotechnology Inc.
Experimental method: on the day of the test, 2 monkeys were randomly grouped according to their body weights. The animals were fasted with water available for 14 to 18 h one day before the administration of a test compound, and were fed 4 hours after the administration.
Before and after the administration, 1.0 mL of blood samples were drawn from the limb veins and placed in an EDTAK2 centrifuge tube. Centrifugation was carried out at 5000 rpm at 4° C. for 10 min, and the plasma was collected. Blood collection time points for the intravenous group were: 0, 5 min, 15 min, 30 min, 1 h, 2 h, 4 h, 6 h, 8 h, 10 h, 12 h, 24 h, and 48 h. Before analysis and detection, all samples were stored at −80° C., and a quantitative analysis of samples was performed using LC-MS/MS.

platelet (PLT) = test: Effect on platelet (PLT) after single intravenous injection; format: in vivo, SD rats; set-up: key to Effect on PLT (↓ decrease): — represents that no significant change was observed; conditions: for platelet toxicity relative to the control compound: rats
Method: Experimental animal: 78 SD rats, with an equal number of males and females, male (♂): 290-380 g, female (♀): 220-290 g, 8-10 weeks old, purchased from Zhejiang Vital River Laboratory Animal Technology Co., Ltd.
Experimental protocol: a clear solution was formulated using a vehicle ([…]). The animals were dosed via tail vein a single time (administration volume: 20 mL/kg; bolus injection period: about 4 minutes; recovery period: 7 days).

MOLT-4 cells = test: Cell proliferation activity in MOLT-4 cells (72 h, cell viability luminescence); format: cell-based, human; conditions: Homo sapiens, read-out: IC50 for the inhibition of MOLT-4 cell proliferation
How it was run: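 Human acute lymphoblastic leukemia cells were seeded at 5×10^3 cells/well in RPMI-1640 with 10% FBS. They were treated with serially varied compound concentrations for 72 h at 37° C., 5% CO2. A luminescent viability reagent was used for read-out. IC50 was derived relative to vehicle control; maximum inhibition was the inhibition rate at the highest concentration.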

[2] = SD rats ♀, 6 mg/kg single i.v., 4 h
[3] = SD rats ♀, 6 mg/kg single i.v., D2
[4] = SD rats ♀, 20 mg/kg single i.v., 4 h
[5] = SD rats ♀, 20 mg/kg single i.v., D2
[6] = SD rats ♀, 60 mg/kg single i.v., D8
[7] = SD rats ♂, 6 mg/kg single i.v., 4 h
[8] = SD rats ♂, 6 mg/kg single i.v., D2
[9] = SD rats ♂, 20 mg/kg single i.v., 4 h
[10] = SD rats ♂, 20 mg/kg single i.v., D2
[11] = SD rats ♂, 60 mg/kg single i.v., D8

T1 sequence (Q07817 whole entry): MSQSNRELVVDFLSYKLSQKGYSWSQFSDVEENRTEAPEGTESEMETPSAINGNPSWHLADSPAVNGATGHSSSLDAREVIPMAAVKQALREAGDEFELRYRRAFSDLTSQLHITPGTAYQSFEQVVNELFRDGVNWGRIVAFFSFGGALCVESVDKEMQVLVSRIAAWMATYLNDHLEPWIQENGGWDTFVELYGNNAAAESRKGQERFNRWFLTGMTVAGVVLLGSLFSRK

| SMILES | DC50 (BCL-xL proteins) | IC50 (MOLT-4 cells) | Effect on PLT (↓ decrease) (platelet (PLT); [2]) | Effect on PLT (↓ decrease) (platelet (PLT); [3]) | Effect on PLT (↓ decrease) (platelet (PLT); [4]) | Effect on PLT (↓ decrease) (platelet (PLT); [5]) | Effect on PLT (↓ decrease) (platelet (PLT); [6]) | Effect on PLT (↓ decrease) (platelet (PLT); [7]) | Effect on PLT (↓ decrease) (platelet (PLT); [8]) | Effect on PLT (↓ decrease) (platelet (PLT); [9]) | Effect on PLT (↓ decrease) (platelet (PLT); [10]) | Effect on PLT (↓ decrease) (platelet (PLT); [11]) | also measured |
| --- | --- | --- | --- | --- | --- | --- | --- | --- | --- | --- | --- | --- | --- |
| Cc1ncsc1-c1ccc([C@H](C)NC(=O)[C@@H]2C[C@@H](O)CN2C(=O)[C@@H](NC(=O)CCCCCC(=O)N2CCN(CC[C@H](CSc3ccccc3)Nc3ccc(S(=O)(=O)NC(=O)c4ccc(N5CCN(CC6=C(c7ccc(Cl)cc7)CCCCC6)CC5)cc4)cc3S(=O)(=O)C(F)(F)F)CC2)C(C)(C)C)cc1 [Compound 6, (2S,4R)-1-((S)-2-(7-(4-((R)-3-((4-(N-(4-(4-((2-(4-chlorophenyl)cyclohept-1-en-1-yl)methyl)piperazin-1-yl)benzoyl)sulfamoyl)-2-((trifluoromethyl)sulfonyl)phenyl)amino)-4-(phenylthio)butyl)piperazin-1-yl)-7-oxoheptanamido)-3,3-dimethylbutanoyl)-4-hydroxy-N—((S)-1-(4-(4-methylthiazol-5-yl)phenyl)ethyl)pyrrolidine-2-carboxamide] | 8.4 nM |  | — | ↓60% | ↓61% | ↓84% | ↓53% | ↓16% | ↓56% | ↓51% | ↓71% | ↓17% | growth inhibition on MOLT-4 xenograft tumor models, P versus the vehicle control group (MOLT-4 xenograft tumors): < 0.0001; AUC(0-t) [1]: 54600 ± 5910 ng·h/mL; half-life [1]: 9.83 ± 2.2 h; platelet toxicity relative to the control compound (platelet (PLT); 6 mg/kg and 20 mg/kg single i.v., 4 h and D2): less platelet toxicity; platelet toxicity relative to the control compound (platelet (PLT); 60 mg/kg single i.v., D8): less platelet toxicity |
| Cc1ncsc1-c1ccc([C@H](C)NC(=O)[C@@H]2C[C@@H](O)CN2C(=O)[C@@H](NC(=O)CCCCCC(=O)N2C[C@H]3C[C@@H]2CN3CC[C@H](CSc2ccccc2)Nc2ccc(S(=O)(=O)NC(=O)c3ccc(N4CCN(CC5=C(c6ccc(Cl)cc6)CCC(C)(C)C5)CC4)cc3)cc2S(=O)(=O)C(F)(F)F)C(C)(C)C)cc1 [Compound 10, (2S,4R)-1-((S)-2-(7-((1R,4R)-5-((R)-3-((4-(N-(4-(4-((4′-chloro-4,4-dimethyl-3,4,5,6-tetrahydro-[1,1′-biphenyl]-2-yl)methyl)piperazin-1-yl)benzoyl)sulfamoyl)-2-((trifluoromethyl)sulfonyl)phenyl)amino)-4-(phenylthio)butyl)-2,5-diazabicyclo[2.2.1]heptan-2-yl)-7-oxoheptanamido)-3,3-dimethylbutanoyl)-4-hydroxy-N—((S)-1-(4-(4-methylthiazol-5-yl)phenyl)ethyl)pyrrolidine-2-carboxamide] | 3.7 nM | < 500 nM |  |  |  |  |  |  |  |  |  |  |  |
| Cc1ncsc1-c1ccc([C@H](C)NC(=O)[C@@H]2C[C@@H](O)CN2C(=O)[C@@H](NC(=O)CCCC(=O)N2C[C@H]3CN(CC[C@H](CSc4ccccc4)Nc4ccc(S(=O)(=O)NC(=O)c5ccc(N6CCN(CC7=C(c8ccc(Cl)cc8)CCC(C)(C)C7)CC6)cc5)cc4S(=O)(=O)C(F)(F)F)C[C@H]3C2)C(C)(C)C)cc1 [Compound 15, cis-(2S,4R)-1-((S)-2-(5-(5-((R)-3-((4-(N-(4-(4-((4′-chloro-4,4-dimethyl-3,4,5,6-tetrahydro-[1,1′-biphenyl]-2-yl)methyl)piperazin-1-yl)benzoyl)sulfamoyl)-2-((trifluoromethyl)sulfonyl)phenyl)amino)-4-(phenylthio)butyl)hexahydropyrrolo[3,4-c]pyrrol-2(1H)-yl)-5-oxopentanamido)-3,3-dimethylbutanoyl)-4-hydroxy-N—((S)-1-(4-(4-methylthiazol-5-yl)phenyl)ethyl)pyrrolidine-2-carboxamide] | 3.6 nM | < 500 nM |  |  |  |  |  |  |  |  |  |  |  |

Now from value to compound, other results behind:

| DC50 (BCL-xL proteins) | IC50 (MOLT-4 cells) | SMILES | Effect on PLT (↓ decrease) (platelet (PLT); [2]) | Effect on PLT (↓ decrease) (platelet (PLT); [3]) | Effect on PLT (↓ decrease) (platelet (PLT); [4]) | Effect on PLT (↓ decrease) (platelet (PLT); [5]) | Effect on PLT (↓ decrease) (platelet (PLT); [6]) | Effect on PLT (↓ decrease) (platelet (PLT); [7]) | Effect on PLT (↓ decrease) (platelet (PLT); [8]) | Effect on PLT (↓ decrease) (platelet (PLT); [9]) | Effect on PLT (↓ decrease) (platelet (PLT); [10]) | Effect on PLT (↓ decrease) (platelet (PLT); [11]) | also measured |
| --- | --- | --- | --- | --- | --- | --- | --- | --- | --- | --- | --- | --- | --- |
| 5.3 nM | < 500 nM | Cc1ncsc1-c1ccc([C@H](C)NC(=O)[C@@H]2C[C@@H](O)CN2C(=O)[C@@H](NC(=O)CCCCCC(=O)N2CCN(CC[C@H](CSc3ccccc3)Nc3ccc(S(=O)(=O)NC(=O)c4ccc(N5CCN(CC6=C(c7ccc(Cl)cc7)CCC7(CC7)C6)CC5)cc4)cc3S(=O)(=O)C(F)(F)F)CC2)C(C)(C)C)cc1 [Compound 11, (2S,4R)-1-((S)-2-(7-(4-((R)-3-((4-(N-(4-(4-((6-(4-chlorophenyl)spiro[2.5]oct-5-en-5-yl)methyl)piperazin-1-yl)benzoyl)sulfamoyl)-2-((trifluoromethyl)sulfonyl)phenyl)amino)-4-(phenylthio)butyl)piperazin-1-yl)-7-oxoheptanamido)-3,3-dimethylbutanoyl)-4-hydroxy-N—((S)-1-(4-(4-methylthiazol-5-yl)phenyl)ethyl)pyrrolidine-2-carboxamide] |  |  |  |  |  |  |  |  |  |  |  |
| 10.7 nM | < 500 nM | Cc1ncsc1-c1ccc([C@H](C)NC(=O)[C@@H]2C[C@@H](O)CN2C(=O)[C@@H](NC(=O)CCCCCC(=O)N2C[C@H]3C[C@@H]2CN3CC[C@H](CSc2ccccc2)Nc2ccc(S(=O)(=O)NC(=O)c3ccc(N4CCN(CC5=C(c6ccc(Cl)cc6)CCC6(CC6)C5)CC4)cc3)cc2S(=O)(=O)C(F)(F)F)C(C)(C)C)cc1 [Compound 19, (2S,4R)-1-((S)-2-(7-((1R,4R)-5-((R)-3-((4-(N-(4-(4-((6-(4-chlorophenyl)spiro[2.5]oct-5-en-5-yl)methyl)piperazin-1-yl)benzoyl)sulfamoyl)-2-((trifluoromethyl)sulfonyl)phenyl)amino)-4-(phenylthio)butyl)-2,5-diazabicyclo[2.2.1]heptan-2-yl)-7-oxoheptanamido)-3,3-dimethylbutanoyl)-4-hydroxy-N—((S)-1-(4-(4-methylthiazol-5-yl)phenyl)ethyl)pyrrolidine-2-carboxamide] |  |  |  |  |  |  |  |  |  |  |  |
| > 20 nM |  | Cc1ncsc1-c1ccc([C@H](C)NC(=O)[C@@H]2C[C@@H](O)CN2C(=O)[C@@H](NC(=O)CCCCCC(=O)N2CCN(CC[C@H](CSc3ccccc3)Nc3ccc(S(=O)(=O)NC(=O)c4ccc(N5CCN(CC6=C(c7ccc(Cl)cc7)CCC(C)(C)C6)CC5)cc4)cc3S(=O)(=O)C(F)(F)F)CC2)C(C)(C)C)cc1 [Control compound, DT2216, reference compound] | ↓24% | ↓78% | ↓89% | ↓96% | ↓87% | ↓26% | ↓69% | ↓81% | ↓91% | ↓73% |  |
